Publication PMC10433847, “The Plasmodium Lactate/H^+ Transporter PfFNT Is Essential and Druggable In Vivo” (Antimicrobial Agents and Chemotherapy, 2023)

Molecular target: T1, PfFNT V196L (Plasmodium falciparum, UniProt O77389, V196L)
T1 sequence (O77389 1-309 V196L): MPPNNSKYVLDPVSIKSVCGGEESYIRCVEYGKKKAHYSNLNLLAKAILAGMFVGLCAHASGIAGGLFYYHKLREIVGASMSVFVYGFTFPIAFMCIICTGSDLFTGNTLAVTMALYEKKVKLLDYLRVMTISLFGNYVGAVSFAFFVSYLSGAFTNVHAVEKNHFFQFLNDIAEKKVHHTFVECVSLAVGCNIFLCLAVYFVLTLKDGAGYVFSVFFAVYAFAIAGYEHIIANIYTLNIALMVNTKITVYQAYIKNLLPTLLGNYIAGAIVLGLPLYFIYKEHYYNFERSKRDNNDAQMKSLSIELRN
Type: cell-based
Conditions: pH 6.8; read-out: IC50, inhibition of 14C-lactate transport

| SMILES | IC50 |
| --- | --- |
| O=C(/C=C(\O)C(F)(F)C(F)(F)F)c1cccnc1 [BH267.meta] | 850 ± 50 nM |
| COc1ccc2c(c1)OC(O)(C(F)(F)C(F)(F)F)CC2=O (centres unmarked) [MMV007839] | 730 ± 70 nM |
